According to patent publication US7745426B2, “Compositions and methods for reducing the risk of epileptic occurrence and/or for treatment of seizure disorders” (D-Pharm Ltd., priority 2003, dated 2010):
Where a name gives a salt, the structure may show the parent alone.

How the values were obtained:
Format in all cases: in vivo
[1] = tested on: epilepsy-prone (EP) subline of BALB/c mice, PTZ-induced convulsions; assay: PTZ-induced convulsive reaction in genetically epilepsy-prone (EP) mice, compounds given i.p.; conditions: for anticonvulsive effect against PTZ-induced convulsive reaction (FIG. 1): 10 mg/kg i.p. 30 minutes prior to PTZ i.p., recorded 30 min
Procedure: The animal model used is epilepsy-prone (EP) subline of mice that was selectively bred from a strain of BALB/c mice (Dolina et al. in Epilepsia (1993) 43: 33-42).
EP mice were subjected to seizure induction by intraperitoneal (i.p.) injection of pentylenetetrazol (PTZ) 50-60 mg/kg dissolved in saline. The EP animals were i.p. treated with the tested compound(s) 10 to 60 minutes prior to the PTZ injection.
The tested compounds were the following: • 1) NC-001 10 mg/kg • 2) Pyridoxine hydrochloride (=Vitamin B6) 10 mg/kg • 3) GABA 10 mg/kg • 4) Separately injected Vitamin B6 and GABA, 10 mg/kg each. A group of EP animals injected with PTZ only, with no further treatment, served as a control group.
The intensity of the PTZ-induced convulsive reaction for each group was evaluated in scores according to the following scale:
(§1) Intensity of PTZ-induced Convulsive Reaction in Scores • 1. A few myoclonic jerks (less than 10) • 2. Less than 20 jerks • 3. Less than 30 jerks • 4. 30-40 jerks/jerks and jumps/short partial convulsions. • 5. Uninterrupted jerks/series of jerks and jumps/repeated partial convulsions • 5.5 Abortive generalized convulsions • 6. Single generalized convulsive attack • 7. Series of jerks, jumps & single generalized convulsive attack; single generalized convulsions with further motor excitation • 7.5 Severe prolonged generalized convulsions • 8. Repeated generalized convulsions • 9. Series of jerks/jumps & repeated convulsions • 10. Status epilepticus • 12. Lethal convulsions
In each group of EP animals, convulsive reactions were recorded during the first 30 minutes following administration of the seizure inducer.
Genetically epilepsy-prone (EP) BALB/c mice, 3-5 animals in a group, were i.p. administered with either 5 mg/kg, 7.5 mg/kg or 10 mg/kg of NC-001 thirty minutes prior to i.p. injection of PTZ (60 mg/kg). The numbers of seizures were then recorded for each animal during 30 minutes following the PTZ injection. The intensity of convulsive reaction was scored for each of the treatment groups.

[2] = tested on: epilepsy-prone (EP) mice, PTZ-induced convulsions; assay: PTZ-induced convulsive reaction in EP mice, NC-001 orally administered; conditions: 30 mg/kg orally 30 min prior to PTZ 50 mg/kg i.p.; four female EP mice vs eight vehicle
Text: as §1
In order to test the ability of the vitamin B6-GABA conjugated compound to cross the GI barrier, epilepsy-prone (EP) mice were orally administered with NC-001.
A group of 12 female EP mice were i.p. treated with 50 mg/kg PTZ to induce seizures. Thirty minutes prior to PTZ administration, NC-001 at the dose of 30 mg/kg was orally administered to four of the animals (=treated group), the other eight animals were treated with vehicle only and served as a control group. All twelve animals were scored, during 30 minutes following i.p. PTZ administration, for intensity of convulsive reactions (see table of convulsive reaction scores as appear above in Example 4).

[3] = tested on: audiogenic sensitive rats, sound-induced convulsions; assay: Sound-induced convulsions in audiogenic sensitive rats chronically treated with PHT with or without pyridoxine; conditions: 100 db sound
Text: Phenyloin (PHT) is prescribed for medication of generalized […] generalized convulsions, complex partial seizures and simple partial seizures. […] In the experiments, intensity of 100 db sound stimulation was used. […] The second group included pyridoxine-untreated rats. […] Eleven rats were used in each group.

[4] = EP mice, 10 mg/kg i.p. 30 minutes prior to PTZ, six tested mice

NCCCC(=O)O [GABA, γ-aminobutyric acid, reference compound]
anticonvulsive effect against PTZ-induced convulsive reaction (FIG. 1) ([1]; EP mice): did not show any anticonvulsive effect

Cc1ncc(COC(=O)CCCN)c(CO)c1O [NC-001, [5-Hydroxy-6-methyl-4-(hydroxymethyl)-pyrid-3-yl]methyl-4-aminobutyrate, dihydrochloride]
protective effect, intensity of convulsive reactions (FIG. 3) [2]: significant protective effect | EP mice that exhibited generalized convulsions ([1]; 5 mg/kg i.p. 30 min prior to PTZ 60 mg/kg i.p., FIG. 2): two of the four | effect on generalized PTZ-induced convulsions ([1]; 7.5 mg/kg i.p. 30 min prior to PTZ 60 mg/kg i.p., three EP mice, numerous jerks in all, FIG. 2): prevented generalized PTZ-induced convulsions in all three treated EP mice | effect on generalized convulsive reactions ([1]; 10 mg/kg i.p. 30 min prior to PTZ 60 mg/kg i.p., single jerks in one mouse, FIG. 2): completely prevented generalized convulsive reactions | dose dependence of anti-convulsive effect ([1]; 5, 7.5, 10 mg/kg i.p., PTZ 60 mg/kg, FIG. 2): dose-dependent anti-convulsive protective effect | anticonvulsive effect against PTZ-induced convulsive reaction (FIG. 1) ([1]; EP mice): almost a complete protection against the convulsive symptoms | animals that had only few convulsive jerks [1, 4]: two | mice that did not show any convulsive reaction [1, 4]: Four out of the six

O=C1NC(=O)C(c2ccccc2)(c2ccccc2)N1 [PHT, 5,5-Diphenyl-2,4-imidazolidinedione]
number of tests with sound-induced convulsive reactions ([3]; 22 tests per group, chronic PHT, days 13 and 14): 6 | tests resulting in sound-induced convulsions (percent of 22 tests) ([3]; PHT 75 mg/kg then 12 x 50 mg/kg once a day, tested days 13 and 14, 11 rats per group): 27.3%

Cc1ncc(CO)c(CO)c1O.Cl [Vitamin B6, Pyridoxine hydrochloride, reference compound]
anticonvulsive effect against PTZ-induced convulsive reaction (FIG. 1) ([1]; EP mice): some protection against PTZ-induced generalized convulsions
